# How the values were obtained:
# [1] = target: Muscarinic acetylcholine receptor M3 (Cavia porcellus) (UniProt Q8VH26); test: Antagonist activity at M3 receptor in Dunkin-Hartley guinea pig tracheal strips assessed as time taken for electrically field-stimulated contractile response to recover by 25 percent of inhibition at Emax after 2 hrs; format: functional
# Canis familiaris [2] = test: Bronchodilator activity in Beagle dog assessed as inhibition of methacholine-induced lung resistance after cumulative intratracheal administration in micelle solution at hourly intervals challenged each time 1 hr later with methacholine; format: functional, Canis lupus familiaris
# [3] = Intrinsic clearance in human liver microsomes assessed per mg of protein in presence of NADPH
# [4] = target: T1, Muscarinic acetylcholine receptor M2 (Homo sapiens, UniProt P08172); test: Displacement of [3H]-NMS from human recombinant M2 receptor expressed in CHO cells after 2 hrs by filter binding assay; format: cell-based
# T1 sequence (P08172 whole entry): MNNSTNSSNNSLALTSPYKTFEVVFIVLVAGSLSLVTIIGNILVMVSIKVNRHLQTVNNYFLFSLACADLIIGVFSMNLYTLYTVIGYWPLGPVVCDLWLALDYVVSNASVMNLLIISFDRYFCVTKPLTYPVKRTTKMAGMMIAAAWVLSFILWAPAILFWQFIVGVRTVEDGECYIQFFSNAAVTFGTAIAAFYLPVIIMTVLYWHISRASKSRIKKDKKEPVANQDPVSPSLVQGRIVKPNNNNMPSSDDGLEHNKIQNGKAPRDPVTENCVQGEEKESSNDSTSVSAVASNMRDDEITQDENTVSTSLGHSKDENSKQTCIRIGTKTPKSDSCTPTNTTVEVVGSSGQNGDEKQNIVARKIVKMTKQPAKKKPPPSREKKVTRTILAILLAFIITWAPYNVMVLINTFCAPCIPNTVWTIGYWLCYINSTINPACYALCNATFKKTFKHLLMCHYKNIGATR
# [5] = target: T2, Muscarinic acetylcholine receptor M3 (Homo sapiens, UniProt P20309); details: CHO
# Target sequence in this assay (P20309 whole entry, looked up): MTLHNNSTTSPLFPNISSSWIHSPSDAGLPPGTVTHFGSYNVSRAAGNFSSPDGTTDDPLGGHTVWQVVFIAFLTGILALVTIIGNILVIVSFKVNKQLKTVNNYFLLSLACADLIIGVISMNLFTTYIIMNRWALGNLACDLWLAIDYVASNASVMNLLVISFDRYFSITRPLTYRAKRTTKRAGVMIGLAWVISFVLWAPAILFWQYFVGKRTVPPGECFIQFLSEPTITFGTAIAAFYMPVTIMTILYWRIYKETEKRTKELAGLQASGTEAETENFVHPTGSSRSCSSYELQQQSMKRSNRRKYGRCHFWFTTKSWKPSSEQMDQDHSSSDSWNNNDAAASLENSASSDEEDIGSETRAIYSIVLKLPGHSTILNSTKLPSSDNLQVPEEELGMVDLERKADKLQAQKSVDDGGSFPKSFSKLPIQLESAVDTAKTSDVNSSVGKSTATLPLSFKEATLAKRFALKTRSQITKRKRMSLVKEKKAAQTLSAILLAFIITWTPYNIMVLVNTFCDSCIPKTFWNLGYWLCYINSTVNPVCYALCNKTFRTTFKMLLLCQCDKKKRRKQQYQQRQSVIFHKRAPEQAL
# [6] = target: T2, Muscarinic acetylcholine receptor M3; test: Displacement of [3H]-NMS from human recombinant M3 receptor expressed in CHO cells after 2 hrs by filter binding assay; format: cell-based
# Target sequence in this assay (P20309 whole entry): as the sequence (P20309 whole entry, looked up) above
# [7] = target: T2, Muscarinic acetylcholine receptor M3; test: Antagonist activity at human recombinant M3 receptor expressed in CHO-K1 cells assessed as inhibition of carbamoyl choline-induced calcium currents after 4 hrs by fluorimetry; format: functional, cell-based
# Target sequence in this assay (P20309 whole entry): as the sequence (P20309 whole entry, looked up) above
# [8] = Intrinsic clearance in human hepatocytes assessed per million cells
# [9] = Intrinsic clearance in human liver microsomes assessed per mg of protein by glucuronidation assay in presence of Brijj-58 and UDPGA
# [10] = target: Muscarinic acetylcholine receptor M3 (Cavia porcellus, UniProt Q8VH26); test: Antagonist activity at M3 receptor in Dunkin-Hartley guinea pig tracheal strips assessed as inhibition of electrically field-stimulated contractile response after 8 hrs; format: functional
# Cavia porcellus = test: Bronchodilator activity in Dunkin-Hartley guinea pig assessed as inhibition of […] lung resistance after cumulative intratracheal administration in micelle solution at hourly intervals challenged each time 1 hr later with methacholine; format: functional, organism-based
# [11] = Apparent permeability across apical to basolateral side in human Caco2 cells; format: ADME, cell-based; details: Caco-2
# [12] = Apparent permeability across basolateral to apical side in human Caco2 cells; format: ADME, cell-based; details: Caco-2
# [13] = target: T3, Muscarinic acetylcholine receptor M5 (Homo sapiens, UniProt P08912); test: Displacement of [3H]-NMS from human recombinant M5 receptor expressed in CHO cells after 24 hrs by filter binding assay; format: cell-based
# T3 sequence (P08912 whole entry): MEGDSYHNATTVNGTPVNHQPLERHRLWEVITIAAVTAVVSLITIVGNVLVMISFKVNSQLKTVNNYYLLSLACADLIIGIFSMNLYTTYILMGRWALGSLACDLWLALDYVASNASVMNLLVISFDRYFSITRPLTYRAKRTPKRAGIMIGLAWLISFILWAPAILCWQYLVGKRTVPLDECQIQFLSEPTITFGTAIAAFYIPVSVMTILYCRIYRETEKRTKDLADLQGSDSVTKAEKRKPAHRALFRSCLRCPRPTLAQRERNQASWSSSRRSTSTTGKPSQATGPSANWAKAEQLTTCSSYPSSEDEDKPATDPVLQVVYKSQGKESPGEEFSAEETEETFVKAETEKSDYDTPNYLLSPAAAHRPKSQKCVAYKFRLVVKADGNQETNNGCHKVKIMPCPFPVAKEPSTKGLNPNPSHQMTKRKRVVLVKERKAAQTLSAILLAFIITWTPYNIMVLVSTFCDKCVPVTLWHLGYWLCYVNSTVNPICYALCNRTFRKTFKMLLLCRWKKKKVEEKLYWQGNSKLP
# [14] = target: T4, Muscarinic acetylcholine receptor M5 (Homo sapiens) (UniProt P08912); test: Displacement of [3H]-NMS from human recombinant M5 receptor expressed in CHO cells assessed as dissociation half life at 100 fold human M5 receptor binding Ki concentration after 24 hrs by dilution-offset filter binding assay; format: cell-based
# T4 sequence (whole entry): T3 sequence (P08912 whole entry)
# Canis familiaris [15] = test: Bronchodilator activity in methacholine challenged Beagle dog assessed as intrinsic duration of action at 10 ug intratracheally administered as single dose in micelle solution; format: functional, Canis lupus familiaris
# [16] = target: T5, Muscarinic acetylcholine receptor M4 (Homo sapiens) (UniProt P08173); test: Displacement of [3H]-NMS from human recombinant M4 receptor expressed in CHO cells assessed as dissociation half life at 100 fold human M4 receptor binding Ki concentration after 24 hrs by dilution-offset filter binding assay; format: cell-based
# T5 sequence (whole entry): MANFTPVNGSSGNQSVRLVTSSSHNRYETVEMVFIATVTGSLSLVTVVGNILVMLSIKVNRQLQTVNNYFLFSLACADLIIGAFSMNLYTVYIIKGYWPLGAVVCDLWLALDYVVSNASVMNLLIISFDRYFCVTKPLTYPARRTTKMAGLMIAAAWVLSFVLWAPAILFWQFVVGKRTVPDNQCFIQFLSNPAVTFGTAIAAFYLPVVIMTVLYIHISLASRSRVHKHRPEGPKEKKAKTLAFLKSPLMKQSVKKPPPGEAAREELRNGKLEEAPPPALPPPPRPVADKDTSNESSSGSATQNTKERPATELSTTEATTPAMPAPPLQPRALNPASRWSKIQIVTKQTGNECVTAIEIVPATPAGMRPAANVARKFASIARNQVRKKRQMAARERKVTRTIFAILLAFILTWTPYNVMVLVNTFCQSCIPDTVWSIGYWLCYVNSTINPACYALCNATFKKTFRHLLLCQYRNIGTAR
# [17] = target: T6, Muscarinic acetylcholine receptor M1 (Homo sapiens) (UniProt P11229); test: Displacement of [3H]-NMS from human recombinant M1 receptor expressed in CHO cells assessed as dissociation half life at 100 fold human M1 receptor binding Ki concentration after 24 hrs by dilution-offset filter binding assay; format: cell-based
# T6 sequence (whole entry): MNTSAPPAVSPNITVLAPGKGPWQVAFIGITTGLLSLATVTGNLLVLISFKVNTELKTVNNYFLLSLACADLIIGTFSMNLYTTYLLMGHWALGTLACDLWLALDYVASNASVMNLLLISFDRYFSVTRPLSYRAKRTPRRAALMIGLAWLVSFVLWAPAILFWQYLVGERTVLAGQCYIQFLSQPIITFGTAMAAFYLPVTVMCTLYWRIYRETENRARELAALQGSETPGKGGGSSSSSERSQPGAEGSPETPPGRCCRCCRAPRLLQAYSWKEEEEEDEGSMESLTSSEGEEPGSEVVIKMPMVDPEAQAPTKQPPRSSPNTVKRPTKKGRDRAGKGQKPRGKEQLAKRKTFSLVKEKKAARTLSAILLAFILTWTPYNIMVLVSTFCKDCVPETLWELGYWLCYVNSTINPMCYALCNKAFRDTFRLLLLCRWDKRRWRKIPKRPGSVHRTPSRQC
# [18] = target: T2, Muscarinic acetylcholine receptor M3
# Target sequence in this assay (P20309 whole entry, looked up): as the sequence (P20309 whole entry, looked up) above
# [19] = target: T7, Muscarinic acetylcholine receptor M4 (Homo sapiens, UniProt P08173); test: Displacement of [3H]-NMS from human recombinant M4 receptor expressed in CHO cells after 24 hrs by filter binding assay; format: cell-based
# T7 sequence (P08173 whole entry): T5 sequence (whole entry)
# [20] = target: T2, Muscarinic acetylcholine receptor M3; remark: listed apart in the source
# Target sequence in this assay (P20309 whole entry, looked up): as the sequence (P20309 whole entry, looked up) above
# Description: Displacement of radioligand from M3 receptor assessed as dissociation half life
# [21] = target: T2, Muscarinic acetylcholine receptor M3; details: CHO; remark: listed apart in the source
# Target sequence in this assay (P20309 whole entry, looked up): as the sequence (P20309 whole entry, looked up) above
# [22] = target: T8, Muscarinic acetylcholine receptor M2 (Homo sapiens) (UniProt P08172); test: Displacement of [3H]-NMS from human recombinant M2 receptor expressed in CHO cells assessed as dissociation half life at 100 fold human M2 receptor binding Ki concentration after 24 hrs by dilution-offset filter binding assay; format: cell-based
# T8 sequence (whole entry): T1 sequence (P08172 whole entry)
# Muscarinic acetylcholine receptor M3 (Cavia porcellus), sequence (Q8VH26 1-587): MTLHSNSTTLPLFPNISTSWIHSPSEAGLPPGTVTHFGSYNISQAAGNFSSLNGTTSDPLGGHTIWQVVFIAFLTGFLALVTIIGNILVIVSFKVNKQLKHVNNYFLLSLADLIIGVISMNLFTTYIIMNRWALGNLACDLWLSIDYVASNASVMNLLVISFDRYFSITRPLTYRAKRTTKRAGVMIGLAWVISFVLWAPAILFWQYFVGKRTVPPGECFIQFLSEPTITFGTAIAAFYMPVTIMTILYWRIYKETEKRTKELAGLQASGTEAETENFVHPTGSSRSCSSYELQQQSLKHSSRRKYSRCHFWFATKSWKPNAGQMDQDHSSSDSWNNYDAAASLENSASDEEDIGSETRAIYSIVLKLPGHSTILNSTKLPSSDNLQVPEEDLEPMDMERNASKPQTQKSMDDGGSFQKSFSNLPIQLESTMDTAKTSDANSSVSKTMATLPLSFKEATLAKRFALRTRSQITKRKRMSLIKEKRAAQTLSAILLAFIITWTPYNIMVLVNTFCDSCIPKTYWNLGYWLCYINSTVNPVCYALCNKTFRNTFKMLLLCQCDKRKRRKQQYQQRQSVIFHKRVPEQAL
# Muscarinic acetylcholine receptor M3 (Cavia porcellus, UniProt Q8VH26), sequence (Q8VH26 whole entry): as the sequence (Q8VH26 1-587) above
smiles,measurement,setting,value
CC(C)[N+]1(C)C2CCC1CC(OC(=O)C(CO)c1ccccc1)C2.O.[Br-] (stereo not given),TIME,[1],1.47 h
same,ID50,Canis familiaris [2],10 µg
CC(C)(CCC(C(N)=O)(c1ccccc1)c1ccccc1)N1CC(Oc2ccccc2)C1,microsomal CLint,[3],> 440 µL/min/mg
same,Ki,[4],0.056 nM
same,T1/2,[5],8.02 h
same,Ki,[6],0.11 nM
CC(C)(CCC(C(N)=O)(c1ccccc1)c1ccccc1)N1CCC(Oc2ccccc2)CC1,Ki,[4],2.6 nM
same,T1/2,[5],17.5 h
same,Ki,[6],3.9 nM
CC(C)(CCC(C(N)=O)(c1ccccc1)c1ccccc1)N1CC[C@H](Oc2ccc(Cl)c(O)c2)C1,Ki,[7],2 nM
same,T1/2,[5],13.4 h
CC(C)(CCC(C(N)=O)(c1ccccc1)c1ccccc1)N1CC[C@@H](Oc2cc(O)cc(F)c2)C1,microsomal CLint,[3],> 440 µL/min/mg
same,Ki,[7],0.56 nM
same,hepatocyte CLint,[8],114 µL/min/1e6 cells
same,T1/2,[5],> 24 h
CC(C)(CCC(C(N)=O)(c1ccccc1)c1ccccc1)N1CC(Oc2ccc(Cl)c(O)c2)C1,microsomal CLint,[9],430 µL/min/mg
same,microsomal CLint,[3],116 µL/min/mg
same,Ki,[7],1.9 nM
same,hepatocyte CLint,[8],159 µL/min/1e6 cells
same,T1/2,[5],23.5 h
NC(=O)C(CCCN1CC[C@H](Oc2ccccc2)C1)(c1ccccc1)c1ccccc1,Ki,[7],2.4 nM
same,Ki,[4],15 nM
same,T1/2,[5],0.633 h
same,Ki,[6],1.9 nM
CC(C)(CCC(C(N)=O)(c1ccccc1)c1ccccc1)N1CC[C@H](Oc2ccc(O)cc2)C1,Ki,[7],0.76 nM
same,T1/2,[5],3.82 h
CC(C)(CCC(C(N)=O)(c1ccccc1)c1ccccc1)N1CC(Oc2cccc(O)c2F)C1,TIME,[1],> 16 h
same,IC50,[10],3.48 nM
same,ED50,Cavia porcellus,4 µg
CC(C)(CCC(C(N)=O)(c1ccccc1)c1ccccc1)N1CC(Oc2cc(O)cc(Cl)c2)C1,microsomal CLint,[9],223 µL/min/mg
same,microsomal CLint,[3],361 µL/min/mg
same,Ki,[7],0.22 nM
same,hepatocyte CLint,[8],116 µL/min/1e6 cells
CC(C)(CCC(C(N)=O)(c1ccccc1)c1ccccc1)N1CC[C@H](Oc2ccccc2)C1,Ki,[7],0.25 nM
same,Ki,[4],1.6 nM
same,T1/2,[5],> 24 h
same,Papp A→B,[11],16 ×10⁻⁶ cm/s
same,Papp B→A,[12],13 ×10⁻⁶ cm/s
same,Ki,[6],1.8 nM
C[N+]1(C)[C@@H]2C[C@@H](OC(=O)C(O)(c3cccs3)c3cccs3)C[C@H]1[C@@H]1O[C@@H]12.O.[Br-] [TIOTROPIUM BROMIDE],Ki,[13],0.0266 nM
same,T1/2,[14],> 24 h
same,T1/2,[5],> 24 h
same,Time,Canis familiaris [15],32 h
same,TIME,[1],> 12.9 h
same,T1/2,[16],> 24 h
same,T1/2,[17],> 23.8 h
same,ID50,Canis familiaris [2],3 µg
same,pKb,[18],10.2
same,Ki,[19],0.0078 nM
same,T1/2,[20],9.45 h
same,T1/2,[21],> 22.8 h
same,T1/2,[22],> 13 h
CC(C)(CCC(C(N)=O)(c1ccccc1)c1ccccc1)N1CC[C@@H](Oc2cccc(O)c2)C1,TIME,[1],> 16 h
same,IC50,[10],3.87 nM
same,ED50,Cavia porcellus,20 µg
CC(C)(CCC(C(N)=O)(c1ccccc1)c1ccccc1)N1CC(Oc2cc(O)cc(F)c2)C1,microsomal CLint,[9],403 µL/min/mg
same,microsomal CLint,[3],176 µL/min/mg
CC(C)(CCC(C(N)=O)(c1ccccc1)c1ccccc1)N1CC(Oc2ccccc2O)C1,Ki,[7],11 nM
CC(C)(CCC(C(N)=O)(c1ccccc1)c1ccccc1)N1CC[C@@H](Oc2ccccc2)C1,Ki,[7],1.6 nM
same,Ki,[4],12 nM
same,T1/2,[5],> 24 h
same,Ki,[6],6.4 nM
CC(C)(CCC(C(N)=O)(c1ccccc1)c1ccccc1)N1CC[C@H](Oc2cccc(O)c2)C1,TIME,[1],> 16 h
same,IC50,[10],4.3 nM
same,ED50,Cavia porcellus,10 µg
CC(C)(CCC(C(N)=O)(c1ccccc1)c1ccccc1)N1CC(OCc2cccc(O)c2)C1,microsomal CLint,[9],13 µL/min/mg
same,microsomal CLint,[3],364 µL/min/mg
same,Ki,[7],0.18 nM
same,hepatocyte CLint,[8],34 µL/min/1e6 cells
same,T1/2,[5],20.7 h
